For this experiment, the target named is human VPS34 (Homo sapiens (Human), UniProt Q8NEB9). The experiment in a line: Human VPS34 enzyme assay (Adapta TR-FRET). Type of experiment: biochemical. The conditions noted are these: for inhibition at 1.11 µM: 1 h, inhibition of VPS34 at a 1.11 μM concentration, read-out: Percent Inhibition; for IC50: human VPS34 enzyme assay, IC50 ranges. Here is the method:
VPS34 (accession number GB:BC033004) was cloned into pDEST20-Thombin as N-terminal GST tagged fusion proteins using the Gateway system (Invitrogen, catalog#11804-013). The sequences were verified before recombinant protein expression using the Baculovirus Expression System with Gateway® Technology. For expression VPS34 was infected at 1 MOI in SF9 cells and harvested 72 hours post infection. For purification, VPS34 is purified by Glutathione Sepharose 4 Fast Flow (GE Healthcare #17-5132-03) followed by HiTrap Q (GE Healthcare #17-1153-01). Human VPS34 Enzyme Assay Method 100 nL compounds in DMSO are added to wells of a 384 well microtitre plate (Greiner 780076). At room temperature: 5 ul VPS34 reaction buffer (Invitrogen Assay Buffer Q (diluted 1 in 5 with nanopure water) plus 2 mM DTT and 2 mM MnCl2) containing ATP (20 uM, Promega) and 200 uM PI-PS substrate (Invitrogen PV5122) is added followed immediately by 5 ul VPS34 reaction buffer (as above) containing VPS34 (5 nM, Millennium Protein Sciences Group) and the mixture is incubated with shaking at room temperature for 1 hour. Then 5 ul […]-detect mix (as per Invitrogen Adapta Assay kit (PV5009) instructions (contains kinase quench buffer, TR-FRET buffer, Adapta Eu anti-ADP antibody and Alexa Fluor 647 ADP tracer)) is added to quench the reaction. The plates are then incubated for 30 minutes at room temperature with shaking and then read on a BMG PheraStar Plus reader. For the assay methods described above, test compound percent inhibition, at various concentrations, is calculated relative to control (DMSO and EDTA) treated samples. Compound concentration versus percent inhibition curves are fitted to generate IC50 values. One skilled in the art will appreciate that the values generated either as percentage inhibition at a single concentration or IC50 values are subject to experimental variation. […] Additionally, compounds of the invention that inhibit VPS34 are described with the following IC50 ranges: […]
In general terms: Time-resolved FRET reads energy transfer from a long-lived donor to a nearby acceptor.

Molecules are shown by their SMILES.

The term inhibition denotes how much of the control response was suppressed. By IC50 is commonly meant the concentration that inhibits the measured activity by half. A high value points to a need for much substance.

human VPS34, sequence (Q8NEB9 whole entry, the tested form may be a part): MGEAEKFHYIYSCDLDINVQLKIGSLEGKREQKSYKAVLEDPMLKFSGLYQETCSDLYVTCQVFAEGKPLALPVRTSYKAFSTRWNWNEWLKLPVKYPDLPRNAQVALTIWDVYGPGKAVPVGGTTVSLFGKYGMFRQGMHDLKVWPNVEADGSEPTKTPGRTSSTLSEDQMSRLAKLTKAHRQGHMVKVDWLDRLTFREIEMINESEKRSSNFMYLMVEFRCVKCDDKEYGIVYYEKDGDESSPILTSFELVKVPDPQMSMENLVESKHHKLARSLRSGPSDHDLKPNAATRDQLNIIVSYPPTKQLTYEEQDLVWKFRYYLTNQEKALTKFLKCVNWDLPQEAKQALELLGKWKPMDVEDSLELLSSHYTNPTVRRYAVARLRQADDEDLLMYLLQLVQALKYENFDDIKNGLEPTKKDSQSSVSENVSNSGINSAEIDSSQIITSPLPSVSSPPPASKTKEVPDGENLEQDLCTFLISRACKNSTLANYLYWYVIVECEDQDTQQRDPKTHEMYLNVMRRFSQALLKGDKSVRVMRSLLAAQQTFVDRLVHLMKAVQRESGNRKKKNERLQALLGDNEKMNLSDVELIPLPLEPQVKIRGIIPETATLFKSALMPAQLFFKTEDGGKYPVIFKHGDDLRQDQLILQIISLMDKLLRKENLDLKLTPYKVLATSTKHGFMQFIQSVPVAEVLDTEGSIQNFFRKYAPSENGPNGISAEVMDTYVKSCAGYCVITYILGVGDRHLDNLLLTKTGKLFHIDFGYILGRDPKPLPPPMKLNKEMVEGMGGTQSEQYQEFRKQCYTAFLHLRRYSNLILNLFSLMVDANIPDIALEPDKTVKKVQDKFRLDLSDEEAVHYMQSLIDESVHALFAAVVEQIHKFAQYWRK

Consider `Cc1ncc(-c2ccnc(NC(=O)C3CC3(F)F)c2)c2ccn(S(C)(=O)=O)c12` (racemic) [Compound I-35, (rac)-2,2-difluoro-N-{4-[7-methyl-1-(methylsulfonyl)-1H-pyrrolo[2,3-c]pyridin-4-yl]pyridin-2-yl}cyclopropanecarboxamide], for which the inhibition at 1.11 µM is greater than 99% and the IC50 was less than 10 nM.

`COC(=O)Nc1cc(-c2cnc(OC)c3c2ccn3S(C)(=O)=O)ccn1` [Compound I-1, methyl {4-[7-methoxy-1-(methylsulfonyl)-1H-pyrrolo[2,3-c]pyridin-4-yl]pyridin-2-yl}carbamate]: the inhibition at 1.11 µM was greater than 99% and the IC50 was less than 10 nM.

As to `COC(=O)Nc1cc(-c2cnc(C)c3c2ccn3S(=O)(=O)c2ccccc2)ccn1` [Compound I-2, methyl {4-[7-methyl-1-(phenylsulfonyl)-1H-pyrrolo[2,3-c]pyridin-4-yl]pyridin-2-yl}carbamate], the inhibition at 1.11 µM was greater than 99% and the IC50 was less than 10 nM.

`CCc1ncc(-c2ccnc(NC(C)=O)c2)c2ccn(S(C)(=O)=O)c12` [Compound I-3, N-{4-[7-ethyl-1-(methylsulfonyl)-1H-pyrrolo[2,3-c]pyridin-4-yl]pyridin-2-yl}acetamide]: the inhibition at 1.11 µM was greater than 99% and the IC50 is less than 10 nM.

As to `CC(=O)Nc1cc(-c2cnc(C)c3c2ccn3S(=O)(=O)c2ccccc2)ccn1` [Compound I-4, N-{4-[7-methyl-1-(phenylsulfonyl)-1H-pyrrolo[2,3-c]pyridin-4-yl]pyridin-2-yl}acetamide], the inhibition at 1.11 µM was greater than 99% and the IC50 is less than 10 nM.

With `CC(=O)Nc1cc(-c2cnc(C)c3c2c(C)cn3S(C)(=O)=O)ccn1` [Compound I-5, N-{4-[3,7-dimethyl-1-(methylsulfonyl)-1H-pyrrolo[2,3-c]pyridin-4-yl]pyridin-2-yl}acetamide], the inhibition at 1.11 µM was greater than 99% and the IC50 is 50 to 100 nM.

Regarding `COC(=O)Nc1cc(-c2cnc(C)c3c2ccn3S(=O)(=O)N(C)C)ccn1` [Compound I-6, methyl {4-[1-(dimethylsulfamoyl)-7-methyl-1H-pyrrolo[2,3-c]pyridin-4-yl]pyridin-2-yl}carbamate], the inhibition at 1.11 µM is greater than 99% and the IC50 fell in the range of 10 to 50 nM.

Consider `CC(=O)Nc1cc(-c2cnc(C)c3c2ccn3S(=O)(=O)N(C)C)ccn1` [Compound I-7, N-{4-[1-(dimethylsulfamoyl)-7-methyl-1H-pyrrolo[2,3-c]pyridin-4-yl]pyridin-2-yl}acetamide], for which the inhibition at 1.11 µM was greater than 99% and the IC50 was less than 10 nM.

Regarding `CC(=O)Nc1cc(-c2cncc3c2ccn3S(=O)(=O)C2CC2)c(F)cn1` [Compound I-8, N-{4-[1-(cyclopropylsulfonyl)-1H-pyrrolo[2,3-c]pyridin-4-yl]-5-fluoropyridin-2-yl}acetamide], the inhibition at 1.11 µM was greater than 99% and the IC50 fell in the range of 10 to 50 nM.

In the case of `CS(=O)(=O)n1ccc2c(-c3ccnc(Nc4ncco4)c3)cncc21` [Compound I-9, 4-[1-(methylsulfonyl)-1H-pyrrolo[2,3-c]pyridin-4-yl]-N-(1,3-oxazol-2-yl)pyridin-2-amine], the inhibition at 1.11 µM is greater than 99% and the IC50 was in the range of 10 to 50 nM.

Regarding `COC(=O)Nc1cc(-c2cnc(OC)c3c2ccn3S(=O)(=O)c2ccccc2)ccn1` [Compound I-10, methyl {4-[7-methoxy-1-(phenylsulfonyl)-1H-pyrrolo[2,3-c]pyridin-4-yl]pyridin-2-yl}carbamate], the inhibition at 1.11 µM was greater than 99% and the IC50 was less than 10 nM.

On to `CC(=O)Nc1cc(-c2cnc(C)c3c2ccn3S(=O)(=O)c2ccc(F)cc2F)ccn1` [Compound I-11, N-(4-{1-[(2,4-difluorophenyl)sulfonyl]-7-methyl-1H-pyrrolo[2,3-c]pyridin-4-yl}pyridin-2-yl)acetamide], for which the inhibition at 1.11 µM is greater than 99% and the IC50 lay within 10 to 50 nM.

Consider `COC(=O)Nc1cc(-c2cnc(C)c3c2ccn3S(=O)(=O)C2CCCC2)ccn1` [Compound I-12, methyl {4-[1-(cyclopentylsulfonyl)-7-methyl-1H-pyrrolo[2,3-c]pyridin-4-yl]pyridin-2-yl}carbamate], for which the inhibition at 1.11 µM is greater than 99% and the IC50 was 10 to 50 nM.

With `O=S(=O)(c1ccccc1)n1ccc2c(-c3ccnc(Nc4ncco4)c3)cncc21` [Compound I-13, N-(1,3-oxazol-2-yl)-4-[1-(phenylsulfonyl)-1H-pyrrolo[2,3-c]pyridin-4-yl]pyridin-2-amine], the inhibition at 1.11 µM is greater than 99% and the IC50 is 10 to 50 nM.

Regarding `CC(=O)Nc1cc(-c2cnc(C)c3c2c(F)cn3S(=O)(=O)C2CC2)ccn1` [Compound I-14, N-{4-[1-(cyclopropylsulfonyl)-3-fluoro-7-methyl-1H-pyrrolo[2,3-c]pyridin-4-yl]pyridin-2-yl}acetamide], the inhibition at 1.11 µM is greater than 99% and the IC50 lay in the range of 10 to 50 nM.

On to `COC(=O)Nc1cc(-c2cnc(C)c3c2ccn3S(=O)(=O)CC(C)C)ccn1` [Compound I-15, methyl {4-[1-(isobutylsulfonyl)-7-methyl-1H-pyrrolo[2,3-c]pyridin-4-yl]pyridin-2-yl}carbamate], for which the inhibition at 1.11 µM was greater than 99% and the IC50 was less than 10 nM.

With `CCS(=O)(=O)n1ccc2c(-c3ccnc(NC(C)=O)c3)cnc(C)c21` [Compound I-16, N-{4-[1-(ethylsulfonyl)-7-methyl-1H-pyrrolo[2,3-c]pyridin-4-yl]pyridin-2-yl}acetamide], the inhibition at 1.11 µM is greater than 99% and the half-maximal inhibitory concentration (IC50) is less than 10 nM.

Regarding `COC(=O)Nc1cc(-c2cncc3c2ccn3S(=O)(=O)N(C)C)ccn1` [Compound I-17, methyl {4-[1-(dimethylsulfamoyl)-1H-pyrrolo[2,3-c]pyridin-4-yl]pyridin-2-yl}carbamate], the inhibition at 1.11 µM is greater than 99% and the concentration for half-maximal inhibition (IC50) was less than 10 nM.

Turning to `CC(=O)Nc1cc(-c2cnc(N(C)C)c3c2ccn3S(=O)(=O)C2CC2)ccn1` [Compound I-18, N-{4-[1-(cyclopropylsulfonyl)-7-(dimethylamino)-1H-pyrrolo[2,3-c]pyridin-4-yl]pyridin-2-yl}acetamide], the inhibition at 1.11 µM is greater than 99% and the IC50 lay within 10 to 50 nM.

Consider `CC(=O)Nc1cc(-c2cncc3[nH]ccc23)ccn1` [Compound I-20, N-[4-(1H-pyrrolo[2,3-c]pyridin-4-yl)pyridin-2-yl]acetamide], for which the inhibition at 1.11 µM was greater than 99% and the concentration for half-maximal inhibition (IC50) was 50 to 100 nM.

Regarding `CC(=O)Nc1cc(-c2cncc3c2ccn3S(C)(=O)=O)ccn1` [Compound I-21, N-{4-[1-(methylsulfonyl)-1H-pyrrolo[2,3-]pyridin-4-yl]pyridin-2-yl}acetamide], the inhibition at 1.11 µM is greater than 99% and the IC50 fell in the range of 10 to 50 nM.

As for `CC(=O)Nc1cc(-c2cncc3c2cnn3S(=O)(=O)C2CC2)ccn1` [Compound I-22, N-{4-[1-(cyclopropylsulfonyl)-1H-pyrazolo[3,4-c]pyridin-4-yl]pyridin-2-yl}acetamide], the inhibition at 1.11 µM was greater than 99% and the IC50 fell in the range of 50 to 100 nM.

In the case of `CC(=O)Nc1cc(-c2cnc(C)c3c2ccn3S(=O)(=O)N2CCCC2)ccn1` [Compound I-23, N-{4-[7-methyl-1-(pyrrolidin-1-ylsulfonyl)-1H-pyrrolo[2,3-c]pyridin-4-yl]pyridin-2-yl}acetamide], the inhibition at 1.11 µM is greater than 99% and the IC50 was less than 10 nM.

For the molecule `CCc1cc2c(-c3ccnc(NC(C)=O)c3)cncc2n1S(=O)(=O)c1ccccc1` [Compound I-24, N-{4-[2-ethyl-1-(phenylsulfonyl)-1H-pyrrolo[2,3-c]pyridin-4-yl]pyridin-2-yl}acetamide], the inhibition at 1.11 µM is greater than 99% and the IC50 is 10 to 50 nM.

Regarding `CCOC(=O)Nc1cc(-c2cncc3c2ccn3S(C)(=O)=O)ccn1` [Compound I-25, ethyl {4-[1-(methylsulfonyl)-1H-pyrrolo[2,3-c]pyridin-4-yl]pyridin-2-yl}carbamate], the inhibition at 1.11 µM is greater than 99% and the IC50 is less than 10 nM.

Regarding `O=C(Cc1nnn[nH]1)Nc1cc(-c2cncc3c2ccn3S(=O)(=O)C2CC2)ccn1` [Compound I-27, N-{4-[1-(cyclopropylsulfonyl)-1H-pyrrolo[2,3-c]pyridin-4-yl]pyridin-2-yl}-2-(1H-tetrazol-5-yl)acetamide], the inhibition at 1.11 µM was greater than 99% and the 50% inhibitory concentration (IC50) was 10 to 50 nM.

For the molecule `COC(=O)Nc1cc(-c2cncc3c2ccn3S(=O)(=O)c2ccccc2)ccn1` [Compound I-28, methyl {4-[1-(phenylsulfonyl)-1H-pyrrolo[2,3-c]pyridin-4-yl]pyridin-2-yl}carbamate], the inhibition at 1.11 µM was greater than 99% and the IC50 lay within 10 to 50 nM.
